We go through two compounds from PMC8545225 (Nanoscale, 2021).

This data set in a line: 2D DOSY NMR diffusion measurement and hydrodynamic size. The settings on record: DOSY NMR in D2O, free ligands at 289.75 K. The format is physicochemical.

As for `O=S(=O)([O-])c1cccc(P(c2ccccc2)c2ccccc2)c1.[Na+]` [TPPMS, triphenylphosphine monosulfonate], the Diffusion coefficient ds is recorded as 2.42 × 10^−10 m^2·s^−1.

For `O=C(O)c1ccc(P(c2ccccc2)c2ccccc2)cc1` [DPPBA, 4-(diphenylphosphino)benzoic acid], the Diffusion coefficient ds is reported as 1.37 × 10^−9 m^2·s^−1.
